Consider ten molecules from patent US7074888B1, “Mimotopes and anti-mimotopes of human platelet glycoprotein Ib/IX” (The Research Foundation of State University of New York, priority 1995, dated 2006).

Ends that are not written are not given here.

One test relates to formalin-fixed platelets. Type of test: cell-based, human. The conditions noted are these: for inhibition of ristocetin-induced aggregation (extent, in words): 1 U/mL purified vWF, 0.9 mg/mL ristocetin. The method, then:
(§1) Citrated human platelet-rich plasma (PRP) was prepared by standard methods (Miller et al. 1983). For study of C-34 neutralization by mimotope peptide, 350 μL of PRP containing 150,000 platelets/μL was incubated for 10 min at 22° C. with phosphate-buffered saline (PBS), 20 μg/mL C-34 mab, or 20 μg/mL C-34 that had previously been incubated for 30 min at 22° C. with varying concentrations of peptides. The PRP was then brought to 37° C. and stirred at 1200 rpm in a Chrono-Log lumi-aggregometer (Chrono-Log Corporation, Havertown, Pa.). Aggregation was initiated by the addition of 1 mg/mL ristocetin (Helena Laboratories, Beaumont, Tex.). For screening of bacteriophage clones displaying potential anti-mimotope peptides, 150 μl of PEG/NaCl precipitated phage was incubated with 250 μl of citrated PRP for one hour at 22° C., transferred to the aggregometer, following which ristocetin was added at a final concentration of 0.8 mg/ml.
Further studies were undertaken with chemically synthesized peptide having SEQ ID NO:94: […]. This decapeptide was able to inhibit ristocetin-induced aggregation fully, with an IC50 occurring between 200–400 μg/mL (FIG. 9). […] In order to approximate more closely the native structure, peptides with an (Arg→Lys) substitution at position 7 were then studied. […] Whereas the […] Finally, both the wild-type GPIb alpha 228–237 peptide (SEQ ID NO:108) containing Gly at residue 233 and the PT-vWD variant with Val replacing Gly at this position (SEQ ID NO:107) were synthesized. […] Lyophilized peptides were reconstituted in PBS, pH 6.0 and 150 μL of varying dilutions incubated for 2–4 hr at 22° C. with 250 μL of formalin-fixed platelets ([…]), prior to aggregometry in which the addition of 1 U/mL purified vWF was followed by the addition of 0.9 mg/mL ristocetin.

Another test deals with mab C-34. Briefly: Neutralization of mab C-34 inhibition of ristocetin-induced aggregation in citrated platelet-rich plasma by mimotope peptide. It is filed as cell-based, human. On the procedure: as §1
A peptide including the consensus sequence (SEQ ID NO: 38) was chemically synthesized (Genosys Biotechnologies, The Woodlands, Tex.). […] A modification of this peptide with a biotin attached to the amino-terminal alanine (N-hydroxysuccinimide hexanoic acid long chain spacer arm biotinylation) was also synthesized. One mg of the chemically synthesized biotinylated peptide was dissolved in one ml of water containing 20 μl of DMSO. […] Accordingly, approximately 10 μg of C-34 was incubated at 22° C. for 30 minutes with varying concentrations of test or control peptide, following which the mixture was added to PRP in a final volume of approximately 0.5 ml for an additional 10 minutes at 22° C. […] A similar pattern of C-34 antibody neutralization was observed when the non-biotinylated form of the peptide (having SEQ ID NO:38) was used, with half-maximal neutralization at approximately 3.0 μM.

For another test, the system named is platelets. As to the kind of experiment: Effect of mimotope peptide by itself on platelet aggregation and on ADP-induced aggregation. Type of test: cell-based, human.
The subject of test [1] is platelets in citrated PRP. As to the kind of experiment: Functional screening of candidate anti-mimotope bacteriophage clones, ristocetin-induced aggregation in citrated PRP. Type of test: cell-based, human. The conditions noted are these: 150 μL phage + 250 μL citrated PRP, 1 hr 22° C., 0.8 mg/mL ristocetin (FIG. 8). The method, then: FIG. 8 illustrates the functional screening of candidate anti-mimotope bacteriophage clones. Following incubation of 150 μL of the indicated bacteriophage clones with 250 μL of citrated PRP for 1 hr at 22° C., aggregation was initiated by the addition of 0.8 mg/mL ristocetin under stirring conditions at 37° C.;
as §1
The mimotope decapeptide itself was then used as a probe to search for “anti-mimotope” peptides. […]

The test system of the next test is mab SZ-2. Briefly: ELISA: phage binding to biotinylated SZ-2 inhibits binding of SZ-2 to immobilized glycocalicin. The conditions noted are these: phage clone. The method, then:
At this point, an ELISA assay can be used to evaluate individual clones, if the number of clones is high. In brief, phage having undergone two PEG precipitations, and subsequently adjusted for titer, can be incubated overnight with biotinylated mab, following which the mab-phage mixture can be added to wells of microtiter plates that have been previously coated with formalin-fixed platelets (or other suitable immobilized target recognized by the mab). Following a series of washing steps, avidin-peroxidase is added, the wells washed again, chromogenic substrate added, and the wells eventually read on an ELISA plate reader. The relative decrease in strength of signal in this assay provides guidance as to the most promising clones for further study. Consensus peptides identified in this manner can be chemically synthesized and characterized with respect to ability to bind original antibody. Peptides showing high binding affinity for the antibody can then be used as immunogens in mice and/or rabbits. […]

The target of test [2] is human platelet glycoprotein Ib/IX complex (human, UniProt P07359 17-652; P13224 26-206; P14770 17-177). As to the kind of experiment: cell-based or functional assay.
Chain of human platelet glycoprotein Ib/IX complex (P07359 17-652, chain 1 of 3): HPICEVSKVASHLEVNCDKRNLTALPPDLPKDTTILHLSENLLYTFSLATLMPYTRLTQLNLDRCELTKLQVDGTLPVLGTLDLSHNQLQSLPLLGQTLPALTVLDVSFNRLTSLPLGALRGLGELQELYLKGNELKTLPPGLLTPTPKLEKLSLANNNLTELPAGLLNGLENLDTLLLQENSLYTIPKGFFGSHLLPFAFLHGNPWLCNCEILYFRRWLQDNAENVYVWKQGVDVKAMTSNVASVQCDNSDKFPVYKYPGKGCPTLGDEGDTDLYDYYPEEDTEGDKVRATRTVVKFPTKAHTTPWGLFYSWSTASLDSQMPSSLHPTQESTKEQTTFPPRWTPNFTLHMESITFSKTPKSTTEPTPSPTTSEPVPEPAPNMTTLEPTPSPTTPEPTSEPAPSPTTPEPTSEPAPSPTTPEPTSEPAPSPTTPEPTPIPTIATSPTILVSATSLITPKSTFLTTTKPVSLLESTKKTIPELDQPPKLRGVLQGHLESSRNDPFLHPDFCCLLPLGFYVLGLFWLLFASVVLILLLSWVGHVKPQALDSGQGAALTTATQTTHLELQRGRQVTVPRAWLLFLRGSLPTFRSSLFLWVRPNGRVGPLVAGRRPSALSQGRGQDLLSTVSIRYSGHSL
Chain of human platelet glycoprotein Ib/IX complex (P13224 26-206, chain 2 of 3): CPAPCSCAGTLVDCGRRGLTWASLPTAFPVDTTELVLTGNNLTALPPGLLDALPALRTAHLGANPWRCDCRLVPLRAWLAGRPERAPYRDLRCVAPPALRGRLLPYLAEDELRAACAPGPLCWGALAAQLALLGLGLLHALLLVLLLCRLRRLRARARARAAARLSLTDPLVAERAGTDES
Chain of human platelet glycoprotein Ib/IX complex (P14770 17-177, chain 3 of 3): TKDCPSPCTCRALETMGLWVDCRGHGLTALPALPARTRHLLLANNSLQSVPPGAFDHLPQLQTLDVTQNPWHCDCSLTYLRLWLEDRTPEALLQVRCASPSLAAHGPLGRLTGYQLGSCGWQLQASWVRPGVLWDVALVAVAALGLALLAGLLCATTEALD

Take “SEQ ID NO:108: wild-type GPIb alpha 228–237 peptide containing Gly at residue 233 (YVWKQGVDVK)”: the “inhibition of ristocetin-induced aggregation (extent, in words)” value (shortened to “inhibition … (extent, in words)”) in the test with formalin-fixed platelets (formalin-fixed platelets) is “virtually without inhibitory activity”.

In the case of RHVAWWKQGV [SEQ ID NO:106], the “inhibition … (extent, in words)” value in the test with formalin-fixed platelets (formalin-fixed platelets) is listed as “unable to exert more than slight inhibition, except at the highest concentrations tested”.

For YVWKQVVDVK [SEQ ID NO:107], the “IC50 for inhibition of ristocetin-induced aggregation” value in the test on formalin-fixed platelets is recorded as “approximately 400 μg/mL”. For the same molecule, in the test with formalin-fixed platelets (formalin-fixed platelets), the “inhibition … (extent, in words)” value is “fully inhibiting”.

For the molecule AWNWRYREYV [SEQ ID NO:1], the “neutralization of C-34 inhibition of ristocetin-induced aggregation” value is listed as “continued inhibition” with mab C-34 (0.14 μM peptide, 20 μg/ml mab C-34 (FIG. 3)); “partial neutralization” with mab C-34 (0.27 μM peptide, 20 μg/ml mab C-34 (FIG. 4)); “partial neutralization” in the test with mab C-34 (0.55 μM peptide, 20 μg/ml mab C-34 (FIG. 5)); “partial neutralization” in the test with mab C-34 (1.1 μM peptide, 20 μg/ml mab C-34 (FIG. 6)); “complete neutralization” in the test on mab C-34 (2.3 μM peptide, 20 μg/ml mab C-34 (FIG. 7)). Moreover, the “influence on ADP-induced aggregation” value in the test on platelets (non-specific effects) is on record as “no influence”. Also, in the test on platelets (peptide alone, PRP), the “induction of platelet aggregation by the peptide by itself” value is “did not induce platelet aggregation”.

On to RHVAWWRQGV [SEQ ID NO:94, RHVAWWRQGV], for which the “IC50 for inhibition of ristocetin-induced aggregation” value with formalin-fixed platelets was in the range of 200 to 400 µg/mL. In addition, in the test on formalin-fixed platelets (formalin-fixed platelets), the “inhibition … (extent, in words)” value is recorded as “fully”. Moreover, in test [1], the “inhibitory activity of bacteriophage clone in functional platelet assay” value is given as “inhibitory activity above background level”.

For the molecule WNWRYREYV [SEQ ID NO:38], the EC50 with mab C-34 (20 μg/mL C-34, citrated PRP, 1 mg/mL ristocetin, read-out: half-maximal neutralization of the C-34) is roughly 3000 nM.

On to RHVAWWKQVV [SEQ ID NO:105], for which the “inhibition … (extent, in words)” value with formalin-fixed platelets (formalin-fixed platelets) was “retained potent inhibitory activity”.

As for WHWRSSWKSG [SEQ ID NO:83], the “neutralization of SZ-2 binding to immobilized glycocalicin” value in the test with mab SZ-2 is “fully neutralizing”.

For the molecule “SEQ ID NO:104: RHVAWWRQGV decapeptide with a (Gly→Val) substitution at position 9, corresponding to the mutation observed in PT-vWD (RHVAWWRQVV)”, the “inhibition of ristocetin-induced aggregation” value with formalin-fixed platelets (by 715 μg/mL peptide, formalin-fixed platelets) is “nearly full inhibition”.

With RHVAWWRQGV [chemically synthesized peptide having SEQ ID NO:94], the “IC50 of inhibition of ristocetin-induced aggregation of formalin-fixed platelets with vWF” value in test [2] lay within 200 to 400 µg/mL.
